Publication PMC2574866 (Drug metabolism and disposition: the biological fate of …, 2008)
Read-outs that look alike come from different tables or passages of the source.

Assays:
[1] = tested on: sandwich-cultured rat hepatocytes; conditions: for biliary excretion index (BEI), effect of BSA-FAF / unbound intrinsic biliary clearance (intrinsic Cl'biliary), effect of BSA-FAF: 4% (w/v) BSA-FAF vs no BSA or BSA
[2] = target: bovine serum albumin (BSA) / essentially fatty acid-free BSA (BSA-FAF) (Bos taurus, UniProt P02769)
[3] = literature value, cited from earlier work
[4] = 4% (w/v) BSA vs no BSA, 10 min incubation
[5] = addition of 1 mM Ca2+ (calcium chloride) to BSA-FAF, n = 1 liver
[6] = six long chain fatty acids added to BSA-FAF, n = 1 liver

Chain of bovine serum albumin (BSA) / essentially fatty acid-free BSA (BSA-FAF) (P02769 25-607): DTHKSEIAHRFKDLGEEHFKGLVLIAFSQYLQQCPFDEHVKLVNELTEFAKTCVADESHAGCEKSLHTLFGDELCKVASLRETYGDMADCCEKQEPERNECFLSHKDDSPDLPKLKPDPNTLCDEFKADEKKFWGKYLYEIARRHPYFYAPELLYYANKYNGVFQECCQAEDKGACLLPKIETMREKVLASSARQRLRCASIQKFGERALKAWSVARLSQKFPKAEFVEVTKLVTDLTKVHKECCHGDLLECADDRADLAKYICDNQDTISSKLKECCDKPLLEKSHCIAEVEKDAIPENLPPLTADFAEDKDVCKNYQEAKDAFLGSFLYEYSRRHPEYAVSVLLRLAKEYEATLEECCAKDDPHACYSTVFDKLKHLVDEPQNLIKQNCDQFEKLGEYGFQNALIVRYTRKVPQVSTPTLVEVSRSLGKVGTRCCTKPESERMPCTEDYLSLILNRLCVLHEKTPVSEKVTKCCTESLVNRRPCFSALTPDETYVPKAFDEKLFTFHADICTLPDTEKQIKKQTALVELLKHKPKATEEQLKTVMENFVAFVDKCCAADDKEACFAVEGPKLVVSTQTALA

Row | SMILES | biliary excretion index (BEI), effect of BSA [1, 4] | unbound intrinsic biliary clearance (intrinsic Cl'biliary), effect of BSA [1, 4] | biliary excretion index (BEI), effect of BSA-FAF ([1]; 10 min incubation) | unbound intrinsic biliary clearance (intrinsic Cl'biliary), effect of BSA-FAF ([1]; 10 min incubation) | BEI in the presence of BSA-FAF, effect of additional Ca2+ [1, 5] | intrinsic Cl'biliary in the presence of BSA-FAF, effect of additional Ca2+ [1, 5] | fu dependence on compound concentration [2] | fu in the presence of BSA compared to BSA-FAF [2] | unbound fraction (fu) ([3]; ref Lacy et al., 2002) | BEI in the presence of BSA-FAF, effect of addition of long chain fatty acids [1, 6] | intrinsic Cl'biliary in the presence of BSA-FAF, effect of addition of long chain fatty acids [1, 6] | fu in the presence of BSA-FAF, effect of addition of long chain fatty acids [2] | unbound fraction (fu) ([3]; ref Hatanaka, 2000) | accumulation in sandwich-cultured rat hepatocytes ([1]; in the presence of BSA or BSA-FAF vs no BSA) | binding to albumin ([2]; bovine) | unbound fraction (fu) ([3]; ref Forker and Luxon, 1981, Hung et al., 2005)
1 | C[C@H]1O[C@@H](O[C@H]2[C@@H](O)C[C@H](O[C@H]3[C@@H](O)C[C@H](O[C@H]4CC[C@@]5(C)[C@H](CC[C@@H]6[C@@H]5C[C@@H](O)[C@]5(C)[C@@H](C7=CC(=O)OC7)CC[C@]65O)C4)O[C@@H]3C)O[C@@H]2C)C[C@H](O)[C@@H]1O [digoxin] | not altered | not altered | significantly decreased | significantly decreased | unable to restore | unable to restore | concentration-independent | significantly higher | ~ 0.7 | – | – | – | – | – | – | –
2 | CC[C@H](C)C(=O)O[C@H]1C[C@H](O)C=C2C=C[C@H](C)[C@H](CC[C@@H](O)C[C@@H](O)CC(=O)O)[C@H]21 [pravastatin] | – | not significantly different | significantly decreased | significantly decreased | – | – | concentration-independent | significantly higher | – | unable to mitigate this effect | unable to mitigate this effect | unable to mitigate this effect | ~ 0.5 | – | – | –
3 | C[C@H](CCC(=O)NCCS(=O)(=O)O)[C@H]1CC[C@H]2[C@@H]3[C@H](O)C[C@@H]4C[C@H](O)CC[C@]4(C)[C@H]3C[C@H](O)[C@]12C [taurocholate] | – | unaffected | – | – | – | – | concentration-independent | significantly higher | – | – | – | – | – | notably decreased | approximately 85% | ~ 0.15
